From patent US12338243B2, “P2X7 modulators” (JANSSEN PHARMACEUTICA NV, priority 2014, dated 2025)

Columns and labels:
P2X7 = target: T1, P2X7 (Homo sapiens, UniProt Q99572); experiment: Ca2+ flux (FLIPR) in 1321N1 cells expressing recombinant human P2X7 channel; type: cell-based; parameters: expressed in transfected cells; host or cells: 1321N1 cells; conditions: 250 μM BzATP
T1 sequence (Q99572 1-595): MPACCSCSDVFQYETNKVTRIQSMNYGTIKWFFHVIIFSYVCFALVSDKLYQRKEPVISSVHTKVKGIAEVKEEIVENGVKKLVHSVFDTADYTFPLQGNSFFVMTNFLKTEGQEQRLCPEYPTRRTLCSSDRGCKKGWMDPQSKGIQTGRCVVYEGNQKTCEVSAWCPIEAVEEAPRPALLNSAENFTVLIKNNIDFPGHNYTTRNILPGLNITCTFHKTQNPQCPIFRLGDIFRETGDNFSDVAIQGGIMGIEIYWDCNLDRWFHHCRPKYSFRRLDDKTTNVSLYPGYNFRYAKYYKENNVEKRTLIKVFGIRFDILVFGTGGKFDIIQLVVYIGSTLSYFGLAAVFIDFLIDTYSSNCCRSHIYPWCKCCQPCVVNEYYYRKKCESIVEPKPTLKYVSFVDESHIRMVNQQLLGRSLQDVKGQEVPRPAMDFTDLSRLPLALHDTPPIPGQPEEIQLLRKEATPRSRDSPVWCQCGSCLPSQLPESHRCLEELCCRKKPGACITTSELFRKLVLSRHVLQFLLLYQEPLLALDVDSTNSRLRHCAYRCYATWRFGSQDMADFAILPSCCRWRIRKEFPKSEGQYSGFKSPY
Method: P2X7 Antagonism in Recombinant Human P2X7 Cells or Recombinant Rat P2X7 Cells: (a) Ca^2+ Flux and (b) Radioligand Binding
(a) Ca^2+ flux: 1321N1 cells expressing the recombinant human or rat P2X7 channel was cultured in HyQ DME/(HyClone/Dulbecco's Modified Eagle Medium) high glucose supplemented with 10% Fetal Bovine Serum (FBS) and appropriate selection marker. Cells were seeded at a density of 25000 cells/well (96-well clear bottom black walled plates) in 100 μl volume/well. On the day of the experiment, cell plates were washed with assay buffer, containing (in mM): 130 NaCl, 2 KCl, 1 CaCl2), 1 MgCl2, 10 HEPES, 5 glucose; pH 7.40 and 300 mOs. After the wash, cells were loaded with the Calcium-4 dye (Molecular Device) and incubated in the dark for 60 minutes. Test compounds were prepared at 250× the test concentration in neat DMSO. Intermediate 96-well compound plates were prepared by transferring 1.2 μL of the compound into 300 μL of assay buffer. A further 3× dilution occurred when transferring 50 μL/well of the compound plate to 100 μL/well in the cell plate. Cells were incubated with test compounds and dye for 30 minutes. […] The fluorescence change was measured 180 seconds after adding the agonist.

rat P2X7 = target: T2, rat P2X7 (Rattus norvegicus, UniProt Q64663); experiment: Ca2+ flux (FLIPR) in 1321N1 cells expressing recombinant rat P2X7 channel; conditions: FLIPR (rat) IC50 (μM), 250 μM BzATP
T2 sequence (Q64663 1-595): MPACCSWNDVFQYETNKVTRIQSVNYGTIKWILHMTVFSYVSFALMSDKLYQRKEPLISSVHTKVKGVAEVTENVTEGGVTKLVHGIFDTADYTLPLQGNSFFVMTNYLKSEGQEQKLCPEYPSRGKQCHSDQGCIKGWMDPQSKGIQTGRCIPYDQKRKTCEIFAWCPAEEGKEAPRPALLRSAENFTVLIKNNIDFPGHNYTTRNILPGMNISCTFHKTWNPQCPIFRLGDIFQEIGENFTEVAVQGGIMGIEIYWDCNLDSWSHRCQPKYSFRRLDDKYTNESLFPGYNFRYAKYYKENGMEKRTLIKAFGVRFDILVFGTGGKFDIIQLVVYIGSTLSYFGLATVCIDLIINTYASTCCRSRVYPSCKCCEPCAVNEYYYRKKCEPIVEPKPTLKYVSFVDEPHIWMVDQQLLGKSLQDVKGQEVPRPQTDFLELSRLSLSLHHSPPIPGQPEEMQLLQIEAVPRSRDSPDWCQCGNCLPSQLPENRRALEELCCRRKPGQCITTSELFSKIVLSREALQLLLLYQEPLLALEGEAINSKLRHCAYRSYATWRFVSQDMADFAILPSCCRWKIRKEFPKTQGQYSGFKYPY

Row | IC50 (P2X7) [nM] | IC50 (rat P2X7) [µM] | SMILES
1 | 3550 | 2.97 | C[C@H]1Cn2c(nnc2-c2ccc(C(F)(F)F)c(F)c2)CN1C(=O)c1cccc(C(F)(F)F)c1Cl [Example 29, (S)-(2-chloro-3-(trifluoromethyl)phenyl)(3-(3-fluoro-4-(trifluoromethyl)phenyl)-6-methyl-5,6-dihydro-[1,2,4]triazolo[4,3-a]pyrazin-7(8H)-yl)methanone]
2 | 340 | > 10 | CC1c2nnc(C3CCCCC3)n2CCN1C(=O)c1cccc(C(F)(F)F)c1Cl (stereo not drawn) [Example 61, (2-chloro-3-(trifluoromethyl)phenyl)(3-cyclohexyl-8-methyl-5,6-dihydro-[1,2,4]triazolo[4,3-a]pyrazin-7(8H)-yl)methanone]
3 | 1400 | > 10 | O=C(c1cccc(Cl)c1Cl)N1CCn2c(nnc2C(F)(F)F)[C@@H]1c1ccccc1 [Example 103, (S)-(2,3-dichlorophenyl)(8-phenyl-3-(trifluoromethyl)-5,6-dihydro-[1,2,4]triazolo[4,3-a]pyrazin-7(8H)-yl)methanone]
4 | 1790 | 0.998 | O=C(c1cccc(C(F)(F)F)c1Cl)N1CCn2c(-c3ccco3)nnc2[C@H]1c1ccccc1 [Example 83, (R)-(2-chloro-3-(trifluoromethyl)phenyl)(3-(furan-2-yl)-8-phenyl-5,6-dihydro-[1,2,4]triazolo[4,3-a]pyrazin-7(8H)-yl)methanone]
5 | > 10000 | > 10 | CC1c2nnc(C3CC3)n2CCN1C(=O)c1cccc(C(F)(F)F)c1Cl (stereo not drawn) [Example 65, (2-chloro-3-(trifluoromethyl)phenyl)(3-cyclopropyl-8-methyl-5,6-dihydro-[1,2,4]triazolo[4,3-a]pyrazin-7(8H)-yl)methanone]
6 | 4080 | > 10 | Cc1nnc2n1CCN(C(=O)c1cccc(C(F)(F)F)c1Cl)[C@@H]2c1ccc(F)cc1 [Example 114, (R)-(2-chloro-3-(trifluoromethyl)phenyl)(8-(4-fluorophenyl)-3-methyl-5,6-dihydro-[1,2,4]triazolo[4,3-a]pyrazin-7(8H)-yl)methanone]
7 | 980 | > 10 | CC(C)c1nnc2n1CCN(C(=O)c1cccc(C(F)(F)F)c1Cl)[C@H]2c1ccccc1 [Example 89, (S)-(2-chloro-3-(trifluoromethyl)phenyl)(3-isopropyl-8-phenyl-5,6-dihydro-[1,2,4]triazolo[4,3-a]pyrazin-7(8H)-yl)methanone]
8 | 14.3 | 6.61 | COc1cnc(-c2nnc3n2C[C@H](C)N(C(=O)c2cccc(C(F)(F)F)c2Cl)C3)nc1 [Example 78, (S)-(2-chloro-3-(trifluoromethyl)phenyl)(3-(5-methoxypyrimidin-2-yl)-6-methyl-5,6-dihydro-[1,2,4]triazolo[4,3-a]pyrazin-7(8H)-yl)methanone]
9 | 1820 | 0.408 | C[C@H]1Cn2c(nnc2-c2cccc(F)c2F)CN1C(=O)c1cccc(C(F)(F)F)c1Cl [Example 45, (S)-(2-chloro-3-(trifluoromethyl)phenyl)(3-(2,3-difluorophenyl)-6-methyl-5,6-dihydro-[1,2,4]triazolo[4,3-a]pyrazin-7(8H)-yl)methanone]
10 | 959 | 1.85 | CC(C)(C)c1nnc2n1CCN(C(=O)c1cccc(C(F)(F)F)c1Cl)[C@H]2c1ccccc1 [Example 82, (S)-(3-(tert-butyl)-8-phenyl-5,6-dihydro-[1,2,4]triazolo[4,3-a]pyrazin-7(8H)-yl)(2-chloro-3-(trifluoromethyl)phenyl)methanone]
11 | 4130 | 3.95 | C[C@H]1Cn2c(nnc2-c2ccc(C(F)(F)F)cc2)CN1C(=O)c1cccc(Cl)c1Cl [Example 26, (S)-(2,3-dichlorophenyl)(6-methyl-3-(4-(trifluoromethyl)phenyl)-5,6-dihydro-[1,2,4]triazolo[4,3-a]pyrazin-7(8H)-yl)methanone]
12 | 4480 | > 10 | Cc1nnc2n1CCN(C(=O)c1cccc(Cl)c1Cl)[C@@H]2c1ccc(F)cc1 [Example 104, (R)-(2,3-dichlorophenyl)(8-(4-fluorophenyl)-3-methyl-5,6-dihydro-[1,2,4]triazolo[4,3-a]pyrazin-7(8H)-yl)methanone]
13 | 7050 | 2.09 | C[C@H]1Cn2c(nnc2-c2ccc(F)cc2F)CN1C(=O)c1ccc(F)c(Cl)c1Cl [Example 52, (S)-(2,3-dichloro-4-fluorophenyl)(3-(2,4-difluorophenyl)-6-methyl-5,6-dihydro-[1,2,4]triazolo[4,3-a]pyrazin-7(8H)-yl)methanone]
14 | 755 | 17.7 | Cc1nnc2n1CCN(C(=O)c1cccc(C(F)(F)F)c1Cl)[C@H]2c1ccccn1 [Example 92, (S)-(2-chloro-3-(trifluoromethyl)phenyl)(3-methyl-8-(pyridin-2-yl)-5,6-dihydro-[1,2,4]triazolo[4,3-a]pyrazin-7(8H)-yl)methanone]
15 | 9040 | 14.8 | C[C@H]1Cn2c(nnc2-c2ccccc2F)CN1C(=O)c1ccc(F)c(Cl)c1Cl [Example 40, (S)-(2,3-dichloro-4-fluorophenyl)(3-(2-fluorophenyl)-6-methyl-5,6-dihydro-[1,2,4]triazolo[4,3-a]pyrazin-7(8H)-yl)methanone]
16 | 1660 | 2.96 | C[C@H]1Cn2c(nnc2-c2ccc(C(F)(F)F)cc2)CN1C(=O)c1cccc(C(F)(F)F)c1Cl [Example 27, (S)-(2-chloro-3-(trifluoromethyl)phenyl)(6-methyl-3-(4-(trifluoromethyl)phenyl)-5,6-dihydro-[1,2,4]triazolo[4,3-a]pyrazin-7(8H)-yl)methanone]
17 | 1930 | 0.578 | C[C@H]1Cn2c(nnc2-c2ccc(F)cc2F)CN1C(=O)c1cccc(C(F)(F)F)c1Cl [Example 51, (S)-(2-chloro-3-(trifluoromethyl)phenyl)(3-(2,4-difluorophenyl)-6-methyl-5,6-dihydro-[1,2,4]triazolo[4,3-a]pyrazin-7(8H)-yl)methanone]
18 | 10400 | 1.61 | C[C@H]1Cn2c(nnc2-c2ccc(F)c(F)c2)CN1C(=O)c1cccc(Cl)c1Cl [Example 47, (S)-(2,3-dichlorophenyl)(3-(3,4-difluorophenyl)-6-methyl-5,6-dihydro-[1,2,4]triazolo[4,3-a]pyrazin-7(8H)-yl)methanone]
19 | 1550 | > 10 | O=C(c1cccc(C(F)(F)F)c1Cl)N1CCn2c(nnc2C(F)(F)F)C1c1ccn[nH]1 (racemic) [Example 126, (±)-(8-(1H-pyrazol-5-yl)-3-(trifluoromethyl)-5,6-dihydro-[1,2,4]triazolo[4,3-a]pyrazin-7(8H)-yl)(2-chloro-3-(trifluoromethyl)phenyl)methanone]
20 | 589 | 1.11 | O=C(c1cccc(C(F)(F)F)c1Cl)N1CCn2c(C3CC3)nnc2[C@H]1c1ccccc1 [Example 77, (R)-(2-chloro-3-(trifluoromethyl)phenyl)(3-cyclopropyl-8-phenyl-5,6-dihydro-[1,2,4]triazolo[4,3-a]pyrazin-7(8H)-yl)methanone]
21 | > 10000 | > 10 | O=C(c1cccc(C(F)(F)F)c1Cl)N1CCn2c(C3CC3)nnc2[C@H]1c1ccc(F)cc1 [Example 106, (R)-(2-chloro-3-(trifluoromethyl)phenyl)(3-cyclopropyl-8-(4-fluorophenyl)-5,6-dihydro-[1,2,4]triazolo[4,3-a]pyrazin-7(8H)-yl)methanone]
